ChEMBL document CHEMBL1909046, “DrugMatrix in vitro pharmacology data”

Legend:
[1] = DRUGMATRIX: Interleukin IL-1 radioligand binding (ligand: [125I] interleukin 1beta); format: cell membranes, Membrane; conditions: nih3t3; Not Active = under 50% inhibition at 10 µM
Acetylcholinesterase = Acetylcholinesterase (Homo sapiens, UniProt P22303); experiment: DRUGMATRIX: Acetylcholinesterase enzyme inhibition (substrate: acetylthiocholine); format: cell-based, HEK293; conditions: hek293; Not Active = under 50% inhibition at 10 µM
[2] = DRUGMATRIX: Glutamate, NMDA, Agonism radioligand binding (ligand: [3H] CGP-39653); format: cell membranes, Rattus norvegicus, Wistar, Cerebral cortex, Membrane; conditions: Not Active = under 50% inhibition at 10 µM
Cytochrome P450 1A2 = molecular target: T1, Cytochrome P450 1A2 (Homo sapiens, UniProt P05177); conditions: bti-tn-5b1-4; note: in other assays of this panel Not Active means under 50% inhibition at 10 µM
T1 sequence (P05177 whole entry): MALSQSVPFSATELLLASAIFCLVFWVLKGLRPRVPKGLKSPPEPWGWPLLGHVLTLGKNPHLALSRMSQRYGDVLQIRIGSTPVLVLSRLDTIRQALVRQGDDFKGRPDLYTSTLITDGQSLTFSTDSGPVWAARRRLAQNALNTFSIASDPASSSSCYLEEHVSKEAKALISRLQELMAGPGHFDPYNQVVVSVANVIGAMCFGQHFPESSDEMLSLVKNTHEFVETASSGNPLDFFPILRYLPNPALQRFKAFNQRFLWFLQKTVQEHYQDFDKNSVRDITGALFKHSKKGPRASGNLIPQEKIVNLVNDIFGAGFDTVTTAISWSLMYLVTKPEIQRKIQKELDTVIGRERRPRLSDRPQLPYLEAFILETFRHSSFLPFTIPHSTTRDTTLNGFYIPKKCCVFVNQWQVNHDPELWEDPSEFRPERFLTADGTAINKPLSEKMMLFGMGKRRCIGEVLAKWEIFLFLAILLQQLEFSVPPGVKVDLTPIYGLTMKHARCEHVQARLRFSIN

Melanocortin receptor 5 = Melanocortin receptor 5 (Homo sapiens, UniProt P33032); format: cell membranes, Membrane; conditions: hek293; note: in other assays of this panel Not Active means under 50% inhibition at 10 µM
[3] = molecular target: T2, Alpha-1B adrenergic receptor (Rattus norvegicus, UniProt P15823); experiment: DRUGMATRIX: Alpha-1B adrenergic receptor radioligand binding (ligand: prazosin); format: cell membranes, Wistar, Liver, Membrane; conditions: Not Active = under 50% inhibition at 10 µM
T2 sequence (P15823 whole entry): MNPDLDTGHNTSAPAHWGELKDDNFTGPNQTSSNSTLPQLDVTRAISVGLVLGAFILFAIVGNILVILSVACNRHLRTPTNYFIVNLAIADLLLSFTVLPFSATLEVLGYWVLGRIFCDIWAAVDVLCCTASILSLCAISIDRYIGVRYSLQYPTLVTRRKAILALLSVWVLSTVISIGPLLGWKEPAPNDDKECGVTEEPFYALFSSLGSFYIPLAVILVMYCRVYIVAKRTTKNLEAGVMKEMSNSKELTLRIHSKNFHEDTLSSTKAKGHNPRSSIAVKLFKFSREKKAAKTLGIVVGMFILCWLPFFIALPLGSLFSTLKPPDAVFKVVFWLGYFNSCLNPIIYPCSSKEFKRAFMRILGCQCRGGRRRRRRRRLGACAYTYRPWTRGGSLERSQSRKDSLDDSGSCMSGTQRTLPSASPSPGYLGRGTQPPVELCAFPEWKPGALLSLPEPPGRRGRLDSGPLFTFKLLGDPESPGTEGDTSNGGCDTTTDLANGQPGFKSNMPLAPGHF

[4] = DRUGMATRIX: Platelet-Derived Growth Factor (PDGF) radioligand binding (ligand: [125I] PDGF); format: cell-based; conditions: nih3t3; Not Active = under 50% inhibition at 10 µM
[5] = molecular target: T3, Type-2 angiotensin II receptor (Homo sapiens, UniProt P50052); format: cell-based; conditions: cho-k1; note: in other assays of this panel Not Active means under 50% inhibition at 10 µM
T3 sequence (P50052 whole entry): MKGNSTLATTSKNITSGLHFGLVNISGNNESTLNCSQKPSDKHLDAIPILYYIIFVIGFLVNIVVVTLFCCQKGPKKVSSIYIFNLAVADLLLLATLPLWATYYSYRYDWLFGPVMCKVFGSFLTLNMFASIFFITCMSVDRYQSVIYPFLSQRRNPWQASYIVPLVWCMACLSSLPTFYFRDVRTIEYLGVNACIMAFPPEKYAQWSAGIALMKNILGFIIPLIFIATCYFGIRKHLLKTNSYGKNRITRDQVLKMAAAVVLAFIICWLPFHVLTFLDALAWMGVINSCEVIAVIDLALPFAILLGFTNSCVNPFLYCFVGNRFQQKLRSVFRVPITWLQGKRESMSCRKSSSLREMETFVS

Sequence of Melanocortin receptor 5 (P33032 whole entry): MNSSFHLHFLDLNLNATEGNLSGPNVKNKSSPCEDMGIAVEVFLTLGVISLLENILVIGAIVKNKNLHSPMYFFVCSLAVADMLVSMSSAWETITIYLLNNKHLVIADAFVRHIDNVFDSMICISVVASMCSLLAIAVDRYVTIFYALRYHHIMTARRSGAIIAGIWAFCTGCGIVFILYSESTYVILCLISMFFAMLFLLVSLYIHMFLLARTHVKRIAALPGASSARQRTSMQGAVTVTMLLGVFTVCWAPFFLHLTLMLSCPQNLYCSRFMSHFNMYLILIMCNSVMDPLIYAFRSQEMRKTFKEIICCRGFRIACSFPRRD
Sequence of Acetylcholinesterase (P22303 whole entry): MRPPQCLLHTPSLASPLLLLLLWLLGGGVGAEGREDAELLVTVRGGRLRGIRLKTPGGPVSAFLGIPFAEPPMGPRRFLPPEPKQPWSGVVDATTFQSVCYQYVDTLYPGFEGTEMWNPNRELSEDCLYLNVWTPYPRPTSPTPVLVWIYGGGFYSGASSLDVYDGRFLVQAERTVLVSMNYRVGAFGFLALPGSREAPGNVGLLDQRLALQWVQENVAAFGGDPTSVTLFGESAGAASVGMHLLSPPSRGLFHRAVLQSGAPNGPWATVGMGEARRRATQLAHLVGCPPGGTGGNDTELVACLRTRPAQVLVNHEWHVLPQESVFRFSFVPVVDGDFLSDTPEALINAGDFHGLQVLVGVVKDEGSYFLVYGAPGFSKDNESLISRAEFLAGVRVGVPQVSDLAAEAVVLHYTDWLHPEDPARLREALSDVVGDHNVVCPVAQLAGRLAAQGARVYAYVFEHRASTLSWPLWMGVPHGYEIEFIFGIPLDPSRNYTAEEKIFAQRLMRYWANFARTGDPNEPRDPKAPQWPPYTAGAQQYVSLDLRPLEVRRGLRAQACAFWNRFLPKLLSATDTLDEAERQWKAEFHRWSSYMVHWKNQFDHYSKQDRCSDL

C[N+](C)(C)CCO.[Cl-] [CHOLINE CHLORIDE]
Not Active: IC50 [1] | Ki [1] | IC50 (Acetylcholinesterase) | IC50 [2] | Ki [2] | IC50 (Cytochrome P450 1A2) | Ki (Cytochrome P450 1A2) | IC50 (Melanocortin receptor 5) | IC50 [3] | IC50 [4] | Ki [4] | IC50 [5]

CC(=O)OCC(=O)[C@@]1(O)CC[C@H]2[C@@H]3CCC4=CC(=O)CC[C@]4(C)[C@H]3C(=O)C[C@@]21C [CORTISONE ACETATE]
Not Active: IC50 [1] | Ki [1] | IC50 (Acetylcholinesterase) | IC50 [2] | Ki [2] | IC50 (Cytochrome P450 1A2) | Ki (Cytochrome P450 1A2) | IC50 (Melanocortin receptor 5) | IC50 [3] | IC50 [4] | Ki [4] | IC50 [5]

O=c1ccc2ccccc2o1 [COUMARIN]
Not Active: IC50 [1] | Ki [1] | IC50 (Acetylcholinesterase) | IC50 [2] | Ki [2] | IC50 (Cytochrome P450 1A2) | Ki (Cytochrome P450 1A2) | IC50 (Melanocortin receptor 5) | IC50 [3] | IC50 [4] | Ki [4] | IC50 [5]

CN(C)/N=N/c1[nH]cnc1C(N)=O [DACARBAZINE]
Not Active: IC50 [1] | Ki [1] | IC50 (Acetylcholinesterase) | IC50 [2] | Ki [2] | IC50 (Cytochrome P450 1A2) | Ki (Cytochrome P450 1A2) | IC50 (Melanocortin receptor 5) | IC50 [3] | IC50 [4] | Ki [4] | IC50 [5]

CC(=O)Nc1c(I)c(NC(C)=O)c(I)c(C(=O)O)c1I [DIATRIZOIC ACID]
Not Active: IC50 [1] | Ki [1] | IC50 (Acetylcholinesterase) | IC50 [2] | Ki [2] | IC50 (Cytochrome P450 1A2) | Ki (Cytochrome P450 1A2) | IC50 (Melanocortin receptor 5) | IC50 [3] | IC50 [4] | Ki [4] | IC50 [5]

COP(=O)(OC)OC=C(Cl)Cl [DICHLORVOS]
Not Active: IC50 [1] | Ki [1] | IC50 (Acetylcholinesterase) | IC50 [2] | Ki [2] | IC50 (Cytochrome P450 1A2) | Ki (Cytochrome P450 1A2) | IC50 (Melanocortin receptor 5) | IC50 [3] | IC50 [4] | Ki [4] | IC50 [5]

O=C(O)Cc1ccccc1Nc1c(Cl)cccc1Cl [DICLOFENAC]
Not Active: IC50 [1] | Ki [1] | IC50 (Acetylcholinesterase) | IC50 [2] | Ki [2] | IC50 (Cytochrome P450 1A2) | Ki (Cytochrome P450 1A2) | IC50 (Melanocortin receptor 5) | IC50 [3] | IC50 [4] | Ki [4] | IC50 [5]
